Key:
human cyclin B-CDK1 = human cyclin B-CDK1 (Homo sapiens, UniProt P06493); test: FlashPlate kinase assay, cyclin B-CDK1, Rb substrate; assay type: biochemical; details: recombinant cyclin B-CDK1, Rb phosphorylation, 1 μM ATP
Experimental: (§1) To determine inhibition of Cdk4, Cdk2 and Cdk1 activity, kinase assays were conducted using FlashPlate™ assays (NEN™-Life Science Products). FlashPlate assays were performed using recombinant human cyclin B-CDK1, human cyclin E-CDK2 or human cyclin D1-CDK4 complexes. GST-cyclinE (GST-cycE), CDK2, GST-cyclinB (GST-cycB), CDK1, GST-CDK4 and cyclin D1 (cycD1) cDNA clones in baculovirus vectors were provided by Dr. W. Harper at the Baylor College of Medicine, Houston, Tex. Proteins were co-expressed in High Five™ insect cells and the complex was purified on glutathione Sepharose resin (Pharmacia, Piscataway, N.J.) as previously described (Harper, J. W. et al. Cell 1993, 75, 805-816). A 6×-Histidine tagged truncated form of retinoblastoma (Rb) protein (amino acid 386-928) was used as the substrate for the cycD1-CDK4, cycB-CDK1 and the cycE-CDK2 assays (the expression plasmid was provided by Dr. Veronica Sullivan, Department of Molecular Virology, Roche Research Centre, Welwyn Garden City, United Kingdom). The Rb protein is a natural substrate for phosphorylation by CDK4, CDK2 and CDK1 (see Herwig and Strauss Eur. J. Biochem. Vol. 246 (1997) pp. 581-601 and the references cited therein).
(§2) The expression of the 62 Kd protein was under the control of an IPTG inducible promoter in an M15 E. coli strain. Cells were lysed by sonication and purification was carried out by binding lysates at pH 8.0 to a Ni-chelated agarose column pretreated with 1 mM imidazole. The resin was then washed several times with incrementally decreasing pH buffers to pH 6.0, and eluted with 500 mM imidazole. Eluted protein was dialysed against 20 mM HEPES pH 7.5, 30% glycerol, 200 mM NaCl, and 1 mM DTT. Purified Rb fusion protein stocks were quantitated for protein concentration, aliquoted, and stored at −70° C.
(§3) For all three kinase assays reported herein, 96-well FlashPlates were coated with Rb protein at 10 μg/ml, using 100 μl per well. Plates were incubated at 4° C. overnight or at room temperature for 3 hours on a shaker. To control for nonspecific phosphorylation, one row of wells was coated with 100 μl/well coating buffer (20 mM HEPES, 0.2 M NaCl). Plates were then washed twice with wash buffer (0.01% Tween 20 in phosphate-buffered saline). Compounds to be tested (“test compounds”) were added to the wells at 5×final concentration. Reactions were initiated by immediate addition of 40 μl reaction mix (25 mM HEPES, 20 mM MgCl2, 0.002% Tween 20, 2 mM DTT, 1 μM ATP, 4 nM ^33P-ATP) and a sufficient amount of enzyme to give counts that were at least 10-fold above background. Plates were incubated at room temperature on a shaker for 30 minutes. Plates were washed four times with the wash buffer, sealed, and counted on the TopCount scintillation counter (Packard Instrument Co., Downers Grove, Ill.]. The percent inhibition of Rb phosphorylation, which is a measure of the inhibition of CDK activity, was determined according to the following formula: [formula]
(§4) where “test compound” refers to the average counts per minute of the test duplicates, “nonspecific” refers to the average counts per minute when no CyclinD/Cdk4, etc., was added, and “total” refers to the average counts per minute when no compound was added. The IC50 value is the concentration of test compound that reduces by 50% the protein-kinase induced incorporation of the radiolabel under the test conditions described.

human cyclin E-CDK2 = human cyclin E-CDK2 (Homo sapiens, UniProt P24941); test: FlashPlate kinase assay, cyclin E-CDK2, Rb substrate; assay type: biochemical; details: recombinant cyclin E-CDK2, Rb phosphorylation, 1 μM ATP
Experimental: as §1, §2, §3, §4

human cyclin D1-CDK4 = human cyclin D1-CDK4 (Homo sapiens, UniProt P11802); test: FlashPlate kinase assay, cyclin D1-CDK4, Rb substrate; assay type: biochemical; details: recombinant cyclin D1-CDK4, Rb phosphorylation, 1 μM ATP
Experimental: as §1, §2, §3, §4

[1] = tested on: HCT116, a colorectal carcinoma cell line; test: Tetrazolium dye proliferation assay (MTT assay); assay type: cell-based; details: inhibition of cell proliferation
Experimental: Proliferation was evaluated by the tetrazolium dye assay according to the procedure of Denizot and Lang (Denizot, F. and Lang, R. J Immunol Methods 1986, 89, 271-277). The cell line used was HCT116, a colorectal carcinoma cell line obtained from the American Type Cell Culture Collection (ATCC; Rockville, Md.). The cells were grown in McCoy's 5A medium supplemented with 10% FCS and L-glutamine.
Cells were plated at the appropriate seeding density to give logarithmic growth over the course of the assay in a 96-well tissue culture plate. Plates were incubated overnight at 37° C. in a humidified incubator with 5% CO2. The next day, test compounds were serially diluted to four times the final concentration in the appropriate medium containing 1.2% DMSO. One-fourth final volume of each dilution was added in duplicate to the plates containing cells. The same volume of 1.2% DMSO in medium was added to a row of “control wells” such that the final concentration of DMSO in each well was 0.3%. Wells to which no cells were added served as the “blank.” Wells to which no inhibitor was added served as “no inhibitor control.” The plates were) returned to the incubator, and at set time points (determined by their growth curves) plates were analyzed as described below.
3-(4,5-dimethylthiazole-2-yl)-2,5-diphenyl-2H-tetrazolium bromide (thiazolyl blue; MTT; Sigma) was added to each well to yield a final concentration of 1 mg/ml. Plates were returned to the incubator for 2.5-3 hours at 37° C. The MTT-containing medium was removed and the resulting formazan metabolite was solubilized in 100% ethanol with shaking for 15 minutes at room temperature. Absorbance readings were taken in a microtiter plate reader (Dynatech and Molecular Devices plate readers were used interchangeably) at a wavelength of 570 nm with a 650 nm reference. Percent inhibition (% INH) is calculated by subtracting the absorbance of the blank well from all wells, then subtracting the ratio of the average absorbance of each test duplicate (SAVE) by the average of the controls (CAVE) from 1.00. The final number is then multiplied by 100 (% INH=(1.00−SAVE/CAVE)×100). The concentration at which 50% inhibition of cell proliferation is obtained (the IC50) is determined from the linear regression of a plot of the logarithm of the concentration versus percent inhibition.

[2] = Homo sapiens, HCT-116, HCT116 cells

Chain of human cyclin D1-CDK4 (P11802 whole entry): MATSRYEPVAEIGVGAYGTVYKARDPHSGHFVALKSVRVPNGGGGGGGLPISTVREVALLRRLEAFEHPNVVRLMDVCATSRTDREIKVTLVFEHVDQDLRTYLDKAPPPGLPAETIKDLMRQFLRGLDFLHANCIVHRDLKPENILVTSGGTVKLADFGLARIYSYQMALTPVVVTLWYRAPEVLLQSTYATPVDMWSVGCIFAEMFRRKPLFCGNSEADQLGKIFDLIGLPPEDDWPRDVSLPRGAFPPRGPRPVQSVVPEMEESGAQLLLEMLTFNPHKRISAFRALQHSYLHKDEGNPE
Chain of human cyclin D1-CDK4 (P24385 whole entry partner): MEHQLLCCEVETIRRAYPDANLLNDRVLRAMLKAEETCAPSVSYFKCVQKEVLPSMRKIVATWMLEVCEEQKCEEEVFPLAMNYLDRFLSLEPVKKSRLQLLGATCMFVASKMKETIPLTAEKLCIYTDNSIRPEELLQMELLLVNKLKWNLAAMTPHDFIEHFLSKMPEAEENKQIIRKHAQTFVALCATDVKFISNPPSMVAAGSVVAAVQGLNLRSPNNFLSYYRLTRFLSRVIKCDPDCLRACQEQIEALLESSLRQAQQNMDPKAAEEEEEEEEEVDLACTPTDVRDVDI
Chain of human cyclin B-CDK1 (P06493 whole entry): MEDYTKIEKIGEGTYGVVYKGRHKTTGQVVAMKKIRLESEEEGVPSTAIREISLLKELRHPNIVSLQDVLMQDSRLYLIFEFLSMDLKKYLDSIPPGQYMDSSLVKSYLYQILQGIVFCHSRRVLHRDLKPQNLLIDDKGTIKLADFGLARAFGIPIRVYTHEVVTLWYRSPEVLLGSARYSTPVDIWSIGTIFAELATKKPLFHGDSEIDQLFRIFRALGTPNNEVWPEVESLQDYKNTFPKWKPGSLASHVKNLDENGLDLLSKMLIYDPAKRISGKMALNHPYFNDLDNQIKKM
Chain of human cyclin B-CDK1 (P14635 whole entry partner): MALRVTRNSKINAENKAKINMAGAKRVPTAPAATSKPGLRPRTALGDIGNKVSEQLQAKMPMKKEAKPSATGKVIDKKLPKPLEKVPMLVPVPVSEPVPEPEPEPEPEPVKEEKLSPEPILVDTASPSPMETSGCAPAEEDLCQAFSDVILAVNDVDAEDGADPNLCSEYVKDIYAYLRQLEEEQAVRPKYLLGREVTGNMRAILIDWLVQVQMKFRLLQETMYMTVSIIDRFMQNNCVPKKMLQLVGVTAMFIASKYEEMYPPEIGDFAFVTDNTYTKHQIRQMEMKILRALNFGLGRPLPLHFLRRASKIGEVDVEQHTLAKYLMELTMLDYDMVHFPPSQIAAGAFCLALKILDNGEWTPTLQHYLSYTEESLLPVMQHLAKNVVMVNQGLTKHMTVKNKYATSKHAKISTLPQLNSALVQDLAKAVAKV

Compound	IC50 (human cyclin B-CDK1)	IC50 (human cyclin E-CDK2)	IC50 (human cyclin D1-CDK4)	IC50 [1, 2]	IC50 ([1]; HCT116 cells)
CCc1ccc(C(=O)c2sc(Nc3ccc(OCCN4CCCC4)cc3)nc2N)cc1F [Example 6, [4-Amino-2-[4-(2-pyrrolidin-1-yl-ethoxy)-phenylamino]-thiazol-5-yl]-(4-ethyl-3-fluoro-phenyl)-methanone; Compound With Trifluoroacetic Acid]	1130 nM	3170 nM	43 nM	3700 nM	–
Nc1nc(Nc2ccc(OCCN3CCCC3)cc2)sc1C(=O)c1cccc(F)c1 [Example 36, [4-Amino-2-[4-(2-pyrrolidin-1-yl-ethoxy)-phenylamino]-thiazol-5-yl]-(3-fluoro-phenyl)-methanone]	338 nM	800 nM	27 nM	–	477 nM
CN(C)CCOc1ccc(Nc2nc(N)c(C(=O)c3cccc(F)c3)s2)cc1 [Example 37, [4-Amino-2-[4-(2-dimethylamino-ethoxy)-phenylamino]-thiazol-5-yl]-(3-fluoro-phenyl)-methanone]	126 nM	892 nM	32 nM	520 nM	–
CC(COc1ccc(Nc2nc(N)c(C(=O)c3cccc(F)c3)s2)cc1)N(C)C (stereo not drawn) [Example 38, [4-Amino-2-[4-(2-dimethylamino-propoxy)-phenylamino]-thiazol-5-yl]-(3-fluoro-phenyl)-methanone]	576 nM	1380 nM	97 nM	436 nM	–
CN(C)CCOc1ccc(Nc2nc(N)c(C(=O)c3ccc4c(c3)OCCO4)s2)cc1 [Example 58, [4-Amino-2-[4-(2-dimethylamino-ethoxy)-phenylamino]-thiazol-5-yl]-(2,3-dihydro-benzo[1,4]dioxin-6-yl)-methanone]	884 nM	–	43 nM	3700 nM	–
CCc1cc(C(=O)c2sc(Nc3ccc(OCCN4CCCC4)cc3)nc2N)ccc1F [Example 76, [4-Amino-2-[4-(2-pyrrolidin-1-yl-ethoxy)-phenylamino]-thiazol-5-yl]-(3-ethyl-4-fluoro-phenyl)-methanone]	3890 nM	–	63 nM	3690 nM	–
CCc1cc(C(=O)c2sc(Nc3ccc(OC[C@@H](C)N(C)C)cc3)nc2N)ccc1F [Example 77, (R)-[4-Amino-2-[4-(2-dimethylamino-propoxy)-phenylamino]-thiazol-5-yl]-(3-ethyl-4-fluoro-phenyl)-methanone]	7800 nM	–	80 nM	4400 nM	–
CCc1cc(C(=O)c2sc(Nc3ccc(OC4CCCN(CC)C4)cc3)nc2N)ccc1F (stereo not drawn) [Example 81, [4-Amino-2-[4-(1-ethyl-piperidin-3-yloxy)-phenylamino]-thiazol-5-yl]-(3-ethyl-4-fluoro-phenyl)-methanone]	–	6400 nM	55 nM	4240 nM	–
CCCc1cc(C(=O)c2sc(Nc3ccc(OC4CCCNC4)cc3)nc2N)ccc1O (stereo not drawn) [Example 99, [4-Amino-2-[4-(piperidin-3-yloxy)-phenylamino]-thiazol-5-yl]-(4-hydroxy-3-propyl-phenyl)-methanone]	174 nM	158 nM	38 nM	–	–
CCCc1cc(C(=O)c2sc(Nc3ccc(OCCN(C)C)cc3)nc2N)ccc1O [Example 106, [4-Amino-2-[4-(2-dimethylamino-ethoxy)-phenylamino]-thiazol-5-yl-](4-hydroxy-3-propyl-phenyl)-methanone; Compound With Acetic Acid]	344 nM	272 nM	17 nM	–	–
Cc1cccc(C(=O)c2sc(Nc3ccc(OC[C@@H]4CCCN4C)cc3)nc2N)c1 [Example 111, (S)-[4-Amino-2-[4-(1-methyl-pyrrolidin-2-ylmethoxy)-phenylamino]-thiazol-5-yl]-m-tolyl-methanone]	1560 nM	2990 nM	86 nM	–	–
CCNCCOc1ccc(Nc2nc(N)c(C(=O)c3ccc4c(c3)OCCO4)s2)cc1 [Example 134, [4-Amino-2-[4-(2-ethylamino-ethoxy)-phenylamino]-thiazol-5-yl]-(2,3-dihydro-benzo[1,4]dioxin-6-yl)-methanone]	1930 nM	–	44 nM	7290 nM	–
CC(C)NCCOc1ccc(Nc2nc(N)c(C(=O)c3ccc4c(c3)OCCO4)s2)cc1 [Example 136, [4-Amino-2-[4-(2-isopropylamino-ethoxy)-phenylamino]thiazol-5-yl]-(2,3-dihydro-benzo[1,4]dioxin-6-yl)-methanone]	1760 nM	–	45 nM	5090 nM	–
CC1COc2ccc(C(=O)c3sc(Nc4ccc(OCCN5CCCC5)cc4)nc3N)cc21 (stereo not drawn) [Example 140, [4-Amino-2-[4-(2-pyrrolidin-1-yl-ethoxy)-phenylamino]-thiazol-5-yl]-(3-methyl-2,3-dihydro-benzofuran-5-yl)-methanone]	–	–	63 nM	4630 nM	–
CCNCCOc1ccc(Nc2nc(N)c(C(=O)c3ccc4c(c3)CCO4)s2)cc1 [Example 143, [4-Amino-2-[4-(2-ethylamino-ethoxy)-phenylamino]-thiazol-5-yl]-(2,3-dihydro-benzofuran-5-yl)-methanone]	2360 nM	3020 nM	91 nM	–	–
COc1ccc(C(=O)c2sc(Nc3ccc(OCCCN)cc3)nc2N)cc1F [Example 147, [4-Amino-2-[4-(3-amino-propoxy)-phenylamino]-thiazol-5-yl]-(3-fluoro-4-methoxy-phenyl)-methanone]	578 nM	1730 nM	97 nM	–	–
CCNCCCOc1ccc(Nc2nc(N)c(C(=O)c3ccc(OC)c(F)c3)s2)cc1 [Example 148, [4-Amino-2-[4-(3-ethylamino-propoxy)-phenylamino]-thiazol-5-yl]-(3-fluoro-4-methoxy-phenyl)methanone]	519 nM	1910 nM	67 nM	–	–

— patent US6818663B2, “Diaminothiazoles” (Hoffmann-La Roches, priority 2002, dated 2004)
